These results are taken from ChEMBL document CHEMBL3217546, “The synthesis and receptor binding affinities of DDD-016, a novel, potential, atypical antipsychotic” (Medchemcomm, 2012).

Targets include D(1B) dopamine receptor (Homo sapiens, UniProt P21918); D(1A) dopamine receptor (Homo sapiens, UniProt P21728); D(3) dopamine receptor (Homo sapiens, UniProt P35462).
Series [1] concerns the target 5-hydroxytryptamine receptor 1B (Homo sapiens, UniProt P28222).
Description: Binding affinity to serotonin 5-HT1B receptor (unknown origin) by PDSP assay
For series [2], the target named is 5-hydroxytryptamine receptor 1E (Homo sapiens, UniProt P28566).
Description: Binding affinity to serotonin 5-HT1E receptor (unknown origin) by PDSP assay
In series [3] the target is 5-hydroxytryptamine receptor 5A (Homo sapiens, UniProt P47898).
Description: Binding affinity to serotonin 5-HT5A receptor (unknown origin) by PDSP assay
In series [4] the target is Alpha-1B adrenergic receptor (Homo sapiens, UniProt P35368).
Description: Binding affinity to adrenergic alpha1B receptor (unknown origin) by PDSP assay
The target in series [5] is Alpha-1D adrenergic receptor (Homo sapiens, UniProt P25100). The series can be described thus: Binding affinity to adrenergic alpha1D receptor (unknown origin) by PDSP assay.
The target of a further series is Histamine H2 receptor (Homo sapiens, UniProt P25021). The series can be described thus: Binding affinity to H2 histamine receptor (unknown origin) by PDSP assay.
The target in series [6] is Muscarinic acetylcholine receptor M1 (Homo sapiens, UniProt P11229).
Description: Binding affinity to M1 receptor (unknown origin) by PDSP assay
In series [7] the target is Muscarinic acetylcholine receptor M3 (Homo sapiens, UniProt P20309).
Description: Binding affinity to M3 receptor (unknown origin) by PDSP assay
Series [8] concerns the target T1, 5-hydroxytryptamine receptor 2A (Homo sapiens, UniProt P28223). The series can be described thus: Agonist activity at 5-HT2A receptor (unknown origin) relative to serotonin. The settings on record: concentration not given here.
In series [9] the target is T2, D(2) dopamine receptor (Homo sapiens, UniProt P14416). The series can be described thus: Agonist activity at dopamine D2 receptor (unknown origin) relative to serotonin. The settings on record: concentration not given here.
For series [10], the target named is T1, 5-hydroxytryptamine receptor 2A. Briefly: Antagonist activity at 5-HT2A receptor (unknown origin) relative to ketanserin. The settings on record: concentration not given here.
For series [11], the target named is T2, D(2) dopamine receptor. Briefly: Antagonist activity at dopamine D2 receptor (unknown origin) relative to ketanserin. The note with it: concentration not given here.
The test system of series [12] is Rattus norvegicus. Briefly: Inhibition of pre-pulse in ip dosed rat. Format: functional, organism-based.
Series [13] has as its system Rattus norvegicus. The series can be described thus: Toxicity in po dosed rat assessed as weight gain after 2 weeks relative to control. Type of series: organism-based. The settings on record: in vivo, 336 h.
For series [14], the system named is Rattus norvegicus. Briefly: Toxicity in po dosed rat assessed as abnormal metabolic changes after 2 weeks relative to control. Format: organism-based. The note with it: in vivo, 336 h.
The test system of series [15] is Rattus norvegicus. Briefly: Toxicity in po dosed rat assessed as elevation in liver enzyme level after 2 weeks relative to control. Type of series: organism-based. The settings on record: in vivo, 336 h.
Series [16] concerns Rattus norvegicus. Briefly: Toxicity in po dosed rat assessed as change in renal parameter after 2 weeks relative to control. Format: organism-based. The note with it: in vivo, 336 h.
In series [17] the target is T1, 5-hydroxytryptamine receptor 2A.
Description: Binding affinity to serotonin 5-HT2A receptor (unknown origin) by PDSP assay
Series [18] has as its target 5-hydroxytryptamine receptor 2B (Homo sapiens, UniProt P41595). The series can be described thus: Binding affinity to serotonin 5-HT2B receptor (unknown origin) by PDSP assay.
Series [19] deals with 5-hydroxytryptamine receptor 4 (Homo sapiens, UniProt Q13639). The series can be described thus: Binding affinity to serotonin 5-HT4 receptor (unknown origin) by PDSP assay.
Series [20] addresses T2, D(2) dopamine receptor.
Description: Binding affinity to dopamine D2 receptor (unknown origin) by PDSP assay
In series [21] the target is Alpha-2A adrenergic receptor (Homo sapiens, UniProt P08913).
Description: Binding affinity to adrenergic alpha2A receptor (unknown origin) by PDSP assay
In series [22] the target is Alpha-2C adrenergic receptor (Homo sapiens, UniProt P18825).
Description: Binding affinity to adrenergic alpha2C receptor (unknown origin) by PDSP assay
Series [23] has as its target Muscarinic acetylcholine receptor M2 (Homo sapiens, UniProt P08172).
Description: Binding affinity to M2 receptor (unknown origin) by PDSP assay
Series [24] concerns the target Muscarinic acetylcholine receptor M4 (Homo sapiens, UniProt P08173).
Description: Binding affinity to M4 receptor (unknown origin) by PDSP assay
In series [25] the target is Muscarinic acetylcholine receptor M5 (Homo sapiens, UniProt P08912).
Description: Binding affinity to M5 receptor (unknown origin) by PDSP assay
The target of series [26] is 5-hydroxytryptamine receptor 1A (Homo sapiens, UniProt P08908).
Description: Binding affinity to serotonin 5-HT1A receptor (unknown origin) by PDSP assay
Series [27] concerns the target 5-hydroxytryptamine receptor 1D (Homo sapiens, UniProt P28221).
Description: Binding affinity to serotonin 5-HT1D receptor (unknown origin) by PDSP assay
Series [28] addresses 5-hydroxytryptamine receptor 2C (Homo sapiens, UniProt P28335).
Description: Binding affinity to serotonin 5-HT2C receptor (unknown origin) by PDSP assay
Series [29] addresses 5-hydroxytryptamine receptor 3A (Homo sapiens, UniProt P46098).
Description: Binding affinity to serotonin 5-HT3 receptor (unknown origin) by PDSP assay
Series [30] deals with 5-hydroxytryptamine receptor 6 (Homo sapiens, UniProt P50406).
Description: Binding affinity to serotonin 5-HT6 receptor (unknown origin) by PDSP assay
For series [31], the target named is 5-hydroxytryptamine receptor 7 (Homo sapiens, UniProt P34969).
Description: Binding affinity to serotonin 5-HT7 receptor (unknown origin) by PDSP assay
Series [32] has as its target Alpha-1A adrenergic receptor (Homo sapiens, UniProt P35348).
Description: Binding affinity to adrenergic alpha1A receptor (unknown origin) by PDSP assay

Calls of active or inactive are those of the source. The rule behind the calls is not given here.

T1 sequence (P28223 whole entry): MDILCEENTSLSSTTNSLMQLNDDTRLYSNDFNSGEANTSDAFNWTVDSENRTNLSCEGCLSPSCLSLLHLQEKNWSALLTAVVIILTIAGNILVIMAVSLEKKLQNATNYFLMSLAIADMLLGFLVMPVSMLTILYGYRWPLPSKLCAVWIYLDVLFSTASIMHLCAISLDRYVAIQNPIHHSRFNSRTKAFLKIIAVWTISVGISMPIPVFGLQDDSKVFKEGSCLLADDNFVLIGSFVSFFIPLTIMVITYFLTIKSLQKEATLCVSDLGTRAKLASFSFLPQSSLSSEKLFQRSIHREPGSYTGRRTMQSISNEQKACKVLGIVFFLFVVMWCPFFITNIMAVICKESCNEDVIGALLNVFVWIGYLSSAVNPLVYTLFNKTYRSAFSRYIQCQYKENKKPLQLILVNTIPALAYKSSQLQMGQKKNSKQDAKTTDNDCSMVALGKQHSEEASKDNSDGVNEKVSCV
T2 sequence (P14416 whole entry): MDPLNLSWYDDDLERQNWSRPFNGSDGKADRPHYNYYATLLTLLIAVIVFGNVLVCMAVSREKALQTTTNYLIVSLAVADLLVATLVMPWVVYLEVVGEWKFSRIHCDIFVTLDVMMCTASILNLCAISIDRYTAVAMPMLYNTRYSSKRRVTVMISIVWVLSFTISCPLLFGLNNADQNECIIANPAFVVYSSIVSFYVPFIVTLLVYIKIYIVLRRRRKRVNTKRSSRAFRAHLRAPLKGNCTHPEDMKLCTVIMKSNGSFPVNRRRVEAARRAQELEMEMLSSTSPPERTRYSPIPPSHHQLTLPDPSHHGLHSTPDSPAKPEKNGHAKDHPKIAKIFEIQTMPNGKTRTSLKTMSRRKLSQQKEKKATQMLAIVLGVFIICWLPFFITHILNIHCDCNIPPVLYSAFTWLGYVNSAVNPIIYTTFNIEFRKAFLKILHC
Chain of 5-hydroxytryptamine receptor 5A (P47898 whole entry): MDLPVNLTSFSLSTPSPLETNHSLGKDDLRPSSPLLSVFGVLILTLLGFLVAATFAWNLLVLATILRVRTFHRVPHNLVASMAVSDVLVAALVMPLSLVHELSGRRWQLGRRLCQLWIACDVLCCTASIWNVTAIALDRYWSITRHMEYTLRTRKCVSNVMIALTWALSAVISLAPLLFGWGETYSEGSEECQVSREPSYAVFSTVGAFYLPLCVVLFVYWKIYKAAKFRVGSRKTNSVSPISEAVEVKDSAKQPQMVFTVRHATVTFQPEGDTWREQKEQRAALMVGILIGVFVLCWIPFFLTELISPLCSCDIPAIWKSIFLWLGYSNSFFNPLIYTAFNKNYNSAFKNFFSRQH
Chain of Alpha-1B adrenergic receptor (P35368 whole entry): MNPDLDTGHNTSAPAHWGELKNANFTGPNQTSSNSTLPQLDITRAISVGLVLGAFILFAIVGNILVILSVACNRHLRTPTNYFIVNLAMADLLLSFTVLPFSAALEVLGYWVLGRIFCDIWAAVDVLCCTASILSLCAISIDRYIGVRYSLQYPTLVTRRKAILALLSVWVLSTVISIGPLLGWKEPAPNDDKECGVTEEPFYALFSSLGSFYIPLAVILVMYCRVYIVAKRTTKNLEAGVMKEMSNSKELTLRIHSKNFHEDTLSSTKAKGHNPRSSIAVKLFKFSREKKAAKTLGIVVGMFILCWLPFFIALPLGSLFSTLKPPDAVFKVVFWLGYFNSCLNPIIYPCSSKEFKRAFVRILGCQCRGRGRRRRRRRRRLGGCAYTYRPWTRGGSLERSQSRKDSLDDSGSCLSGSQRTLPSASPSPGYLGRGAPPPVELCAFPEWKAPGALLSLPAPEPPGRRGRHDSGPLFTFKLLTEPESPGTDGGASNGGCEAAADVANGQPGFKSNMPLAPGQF
Chain of 5-hydroxytryptamine receptor 1E (P28566 whole entry): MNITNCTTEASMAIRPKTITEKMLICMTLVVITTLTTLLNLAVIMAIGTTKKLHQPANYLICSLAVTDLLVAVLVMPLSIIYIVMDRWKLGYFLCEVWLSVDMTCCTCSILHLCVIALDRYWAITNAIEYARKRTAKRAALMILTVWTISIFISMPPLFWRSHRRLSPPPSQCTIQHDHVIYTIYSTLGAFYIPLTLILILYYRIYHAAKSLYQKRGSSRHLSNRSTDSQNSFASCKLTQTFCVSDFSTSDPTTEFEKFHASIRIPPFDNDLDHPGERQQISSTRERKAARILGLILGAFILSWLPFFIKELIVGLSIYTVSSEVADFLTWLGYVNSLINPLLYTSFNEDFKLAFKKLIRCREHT
Chain of 5-hydroxytryptamine receptor 1B (P28222 whole entry): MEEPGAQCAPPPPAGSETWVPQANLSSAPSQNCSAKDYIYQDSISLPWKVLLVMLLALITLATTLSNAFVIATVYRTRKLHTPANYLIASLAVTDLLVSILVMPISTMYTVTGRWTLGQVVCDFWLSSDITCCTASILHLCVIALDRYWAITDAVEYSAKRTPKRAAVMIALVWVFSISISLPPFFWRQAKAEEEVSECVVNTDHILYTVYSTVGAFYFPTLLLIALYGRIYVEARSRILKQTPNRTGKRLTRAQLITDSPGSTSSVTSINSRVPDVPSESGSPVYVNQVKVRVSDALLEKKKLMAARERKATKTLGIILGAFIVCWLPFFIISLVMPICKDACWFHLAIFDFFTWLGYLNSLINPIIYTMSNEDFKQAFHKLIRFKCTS
Chain of 5-hydroxytryptamine receptor 3A (P46098 whole entry): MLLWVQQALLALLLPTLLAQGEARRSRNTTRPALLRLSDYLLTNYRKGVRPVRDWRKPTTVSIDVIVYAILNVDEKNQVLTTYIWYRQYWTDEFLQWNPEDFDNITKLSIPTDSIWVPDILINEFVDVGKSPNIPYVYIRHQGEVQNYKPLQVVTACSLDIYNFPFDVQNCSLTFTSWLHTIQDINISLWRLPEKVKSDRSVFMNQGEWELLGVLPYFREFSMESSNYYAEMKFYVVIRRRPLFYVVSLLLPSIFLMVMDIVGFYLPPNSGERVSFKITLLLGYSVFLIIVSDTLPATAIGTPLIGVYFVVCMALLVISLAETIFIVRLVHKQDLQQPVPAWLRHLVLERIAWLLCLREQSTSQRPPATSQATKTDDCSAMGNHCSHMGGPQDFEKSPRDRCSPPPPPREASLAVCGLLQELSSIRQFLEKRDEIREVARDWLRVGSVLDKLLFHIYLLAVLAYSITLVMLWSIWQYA
Chain of D(1B) dopamine receptor (P21918 whole entry): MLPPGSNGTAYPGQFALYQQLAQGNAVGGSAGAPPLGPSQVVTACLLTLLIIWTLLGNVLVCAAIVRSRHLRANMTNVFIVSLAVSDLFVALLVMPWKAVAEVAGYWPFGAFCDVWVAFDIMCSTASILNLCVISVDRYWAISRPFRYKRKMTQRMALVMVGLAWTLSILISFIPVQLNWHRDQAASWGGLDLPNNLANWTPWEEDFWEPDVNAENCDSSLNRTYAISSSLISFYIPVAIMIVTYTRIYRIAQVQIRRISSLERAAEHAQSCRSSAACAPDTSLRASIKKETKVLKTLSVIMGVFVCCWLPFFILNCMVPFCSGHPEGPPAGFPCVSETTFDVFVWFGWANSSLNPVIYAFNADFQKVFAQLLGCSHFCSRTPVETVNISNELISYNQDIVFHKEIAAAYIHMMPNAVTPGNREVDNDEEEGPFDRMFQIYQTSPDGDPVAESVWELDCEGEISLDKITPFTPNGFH
Chain of 5-hydroxytryptamine receptor 7 (P34969 whole entry): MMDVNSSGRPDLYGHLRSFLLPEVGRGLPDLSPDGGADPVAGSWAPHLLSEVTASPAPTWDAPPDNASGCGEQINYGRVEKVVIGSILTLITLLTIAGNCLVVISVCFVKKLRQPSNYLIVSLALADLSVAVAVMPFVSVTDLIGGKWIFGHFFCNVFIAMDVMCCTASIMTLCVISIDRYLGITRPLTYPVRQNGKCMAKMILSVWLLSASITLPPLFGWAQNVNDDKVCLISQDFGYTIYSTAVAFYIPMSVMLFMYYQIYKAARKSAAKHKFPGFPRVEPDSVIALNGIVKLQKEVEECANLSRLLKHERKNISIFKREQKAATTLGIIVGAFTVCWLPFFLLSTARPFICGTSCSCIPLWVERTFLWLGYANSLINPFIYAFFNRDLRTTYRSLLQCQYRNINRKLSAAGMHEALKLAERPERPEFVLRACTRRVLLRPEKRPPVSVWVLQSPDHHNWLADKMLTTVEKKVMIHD
Chain of Alpha-2C adrenergic receptor (P18825 whole entry): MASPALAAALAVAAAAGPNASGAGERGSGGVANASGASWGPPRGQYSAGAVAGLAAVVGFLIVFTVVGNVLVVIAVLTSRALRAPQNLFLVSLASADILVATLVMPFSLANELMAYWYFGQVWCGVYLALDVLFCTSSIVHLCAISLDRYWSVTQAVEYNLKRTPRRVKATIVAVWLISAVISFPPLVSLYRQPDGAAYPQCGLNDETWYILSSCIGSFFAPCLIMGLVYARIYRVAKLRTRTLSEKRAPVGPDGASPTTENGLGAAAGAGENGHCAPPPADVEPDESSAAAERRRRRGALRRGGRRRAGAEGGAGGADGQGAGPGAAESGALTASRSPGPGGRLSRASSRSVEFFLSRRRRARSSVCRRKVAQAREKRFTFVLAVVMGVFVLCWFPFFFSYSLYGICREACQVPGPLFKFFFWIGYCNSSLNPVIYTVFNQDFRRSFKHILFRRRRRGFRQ
Chain of D(1A) dopamine receptor (P21728 whole entry): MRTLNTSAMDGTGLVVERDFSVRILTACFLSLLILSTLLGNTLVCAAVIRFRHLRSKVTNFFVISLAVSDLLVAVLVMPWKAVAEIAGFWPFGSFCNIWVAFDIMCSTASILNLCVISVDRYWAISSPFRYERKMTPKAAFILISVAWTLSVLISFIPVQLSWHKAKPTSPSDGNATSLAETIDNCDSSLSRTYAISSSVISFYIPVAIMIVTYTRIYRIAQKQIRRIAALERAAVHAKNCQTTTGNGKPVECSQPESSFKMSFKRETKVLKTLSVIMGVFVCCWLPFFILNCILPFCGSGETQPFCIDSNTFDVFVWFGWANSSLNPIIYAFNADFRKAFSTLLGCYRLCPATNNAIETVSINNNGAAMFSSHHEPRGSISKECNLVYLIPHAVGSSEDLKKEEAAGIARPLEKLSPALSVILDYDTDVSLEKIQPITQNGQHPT
Description for D(1A) dopamine receptor: Binding affinity to dopamine D1 receptor (unknown origin) by PDSP assay
Description for D(3) dopamine receptor: Binding affinity to dopamine D3 receptor (unknown origin) by PDSP assay

On to `OCCOCCN1CCN(C2=Nc3ccccc3Sc3ccccc32)CC1` [QUETIAPINE], for which the Ki in [1] is more than 1 µM; in series [2], more than 1 µM; in series [3], more than 1 µM; at D(1B) dopamine receptor, more than 1 µM; in [4], 0.1 µM.
With `CN1CCC2C(C1)c1cccc3c1N2c1ccccc1CS3` (stereo not drawn), the Ki in series [5] is 0.794 µM; at Histamine H2 receptor it was 0.0794 µM; in [6], more than 1 µM; in series [7] it was more than 1 µM; in [17] it was 0.002 µM; in series [18] it was 0.00501 µM. In addition, the inhibitory constant (Ki) in series [19] was more than 1 µM; at D(2) dopamine receptor [20] it was 0.126 µM; in [21], 0.0631 µM; in [22], 0.0316 µM; in series [23] it was more than 1 µM; in [24], more than 1 µM. The inhibitory constant (Ki) is 0.794 µM in [25]; 0.0398 µM in series [26]; 0.316 µM in series [1]; 0.0631 µM in series [27]; 2.51 µM in series [2]; 0.00794 µM in series [28]. Also, the Ki was 0.631 µM in series [29]; 0.0158 µM in series [30]; 0.0794 µM in series [31]; 0.0251 µM on D(1A) dopamine receptor; 0.0316 µM at D(3) dopamine receptor; 0.501 µM in [32]. Besides, the Ki in [4] is more than 1 µM. The inhibition in series [8] was determined as 4%; on D(2) dopamine receptor [9], 0%; in series [10], 101%; at D(2) dopamine receptor [11], 95%. In the series on Rattus norvegicus [12], the inhibition entry was “Active”. In addition, the Activity entry in the series on Rattus norvegicus [13], with Rattus norvegicus [14], with Rattus norvegicus [15] and in the series with Rattus norvegicus [16] was “Non-toxic” in each case.
For `Cc1cc2c(s1)Nc1ccccc1N=C2N1CCN(C)CC1` [OLANZAPINE], the inhibition constant (Ki) in [29] was 1 µM; in [3], more than 1 µM; at D(1B) dopamine receptor, 0.1 µM.
`CN1CCN(C2=Nc3cc(Cl)ccc3Nc3ccccc32)CC1` [CLOZAPINE] showed a Ki in series [3] of more than 1 µM.

As a reminder, the Ki is a dissociation constant, usually derived from enzyme kinetics or from competition with a known ligand. The inhibition is the relative decrease from the control value, in per cent.
